Literature values, collected in patent US20250235427A1, “5-METHOXY-N,N-[…][…] THE TREATMENT OF SOCIAL/EMOTIONAL […] DETACHMENT” (GH RESEARCH IRELAND LIMITED, priority 2022, published 2025).

System: patients with treatment resistant bipolar depression
Settings: single 0.5·mg·kg^1 infusion; cited from earlier work

CNC1(c2ccccc2Cl)CCCCC1=O (centres unmarked) [ketamine]
duration of anti-anhedonic effect: up to 14 days | time to decrease of anhedonia (effect onset): ≤ 40 min
